{
  "source": "PubChem BioAssay AID1963841",
  "about": "(Molecular Pharmacology Branch, DTP, NCI, 2024);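 also: spheroids exposed to compounds for seven days before readout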;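 as to viability, T/C: 100% = DMSO vehicle control viability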",
  "test_system": "439559-082-T-J2-PDC spheroid viability",
  "experiment": "Anticancer human tumor 439559-082-T-J2-PDC patient-derived colon adenocarcinoma cell line growth inhibition [POLQ]",
  "settings": "spheroids with HUVEC and MSC; for viability, T/C: stronger effect = lower value",
  "protocol": "Multicellular complex tumor spheroid response to Polymerase (POL) inhibitors (novobiocin, ART-558, RP6685) in combination with a variety of drugs and investigational agents in selected tumor cell lines\nThe POL inhibitors (novobiocin, ART-558, and RP6685) were evaluated both individually and in combination with standard of care and investigational anticancer small molecules within a complex spheroid model of solid tumors. . Complex spheroids include a stromal component modeled by human endothelial cells (HUVEC) and fibroblasts modeled by human mesenchymal stem cells (MSCs). The concentration ranges selected for each drug and investigational agent were based upon clinically achievable concentrations if the clinical Cmax of the agent was known.\nCompounds. The drugs and investigational agents: novobiocin (NSC847541), ART-558 (NSC835418), RP-6685 (NSC848927), peposertib (NSC802822), ceralasertib (NSC780249), elimusertib (NSC800525), camonsertib (NSC841442), AZD-1390 (NSC803789), olaparib (NSC753686), talazoparib (NSC767125), rucaparib (NSC756644), sotorasib (NSC818433), MRTX-1133 (NSC836407), SN-38 (NSC673596), topotecan (NSC609699), epotoside (NSC141540), doxorubicin (NSC123127), gemcitabine (NSC613327), 5-fluorouracil (NSC19893), paclitaxel (NSC125973), vemurafenib (NSC761431), MSA-2 (NSC828583), SN-011 (NSC837082), adavosertib (NSC754352), prexasertib (NSC758257), carboplatin (NSC241240) and oxaliplatin (NSC266046), were obtained from the National Cancer Institute (NCI) Developmental Therapeutics Program Chemical Repository (21). The FDA-approved anticancer drug set is available from the Developmental Therapeutics Program at https://dtp.cancer.gov/organization/dscb/obtaining/. […] The stock solutions were prepared in dimethyl sulfoxide (DMSO, Sigma-Aldrich, St. Louis, MO, cat. D2650), except for the platinum compounds which were prepared in saline (Quality Biological, Gaithersburg, MD, cat. 114-055-101), at 800-fold the tested concentration and stored at -70 degrees C prior to their use. All drugs and investigational agents were tested over a range starting from a high concentration at or near the clinical Cmax and decreasing in half-log increments. If the clinical Cmax for an agent had not been determined, the highest concentration tested was 10 microM, except for SN-38, which was tested at a high concentration of 1 microM.\nCell Culture. All cells were maintained in an incubator at 37 degrees C and 5% CO2 with 95% humidity. The PDC lines were cultured according to standard operating procedures established by the NCI PDMR (https://pdmr.cancer.gov). Table 3 of the manuscript, lists the cell lines along with the number of the three cell types plated to form the mct-spheroids and media for tumor cell growth. After thawing, all PDC lines, except 997537-175-T-J1-PDC and 415267-285-R-J2-PDC, were cultured in Matrigel-coated flasks prepared with a working solution of 1X Ham's F-12 nutrient mix, without supplementation (Thermo Fisher Scientific, cat. 11765054), 100 U/mL penicillin-streptomycin (Thermo Fisher Scientific, cat. 15140122), and 2.5% Matrigel (Corning Inc., Corning, NY, cat. 354248) for the first three passages. The two PDC lines 997537-175-T-J1-PDC and 415267-285-R-J2-PDC were cultured on uncoated flasks. The 857933-349-R-J2-PDC line was cultured in 6C/Colon 1B media containing advanced DMEM/F-12 (Thermo Fisher Scientific, cat. 12634028), 10 mM HEPES (Thermo Fisher Scientific, cat. 15630080), 1X GlutaMAX supplement (Thermo Fisher Scientific, cat. 35050061), 0.1 mg/mL primocin (InvivoGen, San Diego, CA, cat. ant-pm-2), 10% defined fetal bovine serum, heat inactivated (HyClone Laboratories Inc., Logan, UT, cat. SH30070.03HI), 50% L-WRN conditioned media (ATCC, cat. CRL-3276), 1.25 mM N-Acetyl-L-cysteine (Sigma-Aldrich, cat. A9165), 10 mM nicotinamide (Sigma-Aldrich, cat. N0636), 1X B-27 supplement (Thermo Fisher Scientific, cat. 17504044), 1X N-2 supplement (Thermo Fisher Scientific, cat. […]",
  "data": [
    {"smiles": "CC(=O)O[C@H]1C(=O)[C@@]2(C)[C@H]([C@H](OC(=O)c3ccccc3)[C@]3(O)C[C@H](OC(=O)[C@H](O)[C@@H](NC(=O)c4ccccc4)c4ccccc4)C(C)=C1C3(C)C)[C@]1(OC(C)=O)CO[C@@H]1C[C@@H]2O", "note": "+ Cc1cccc(N(C)C(=O)C2C(O)CCN2c2nc(C)cc(C(F)(F)F)c2C#N)c1", "values": [
      {"measurement": "IC50", "setting": "curve of first compound, second compound 0.0316 µM", "result": 2.19, "unit": "µM"},
      {"measurement": "IC50", "setting": "curve of first compound, second compound 0.1 µM", "result": 1.78, "unit": "µM"},
      {"measurement": "IC50", "setting": "curve of first compound, second compound 0.316 µM", "result": 1.9, "unit": "µM"},
      {"measurement": "IC50", "setting": "curve of first compound, second compound 1 µM", "result": 1.71, "unit": "µM"},
      {"measurement": "IC50", "setting": "curve of first compound, second compound 3.16 µM", "result": 1.43, "unit": "µM"},
      {"measurement": "IC50", "setting": "curve of first compound, second compound 10 µM", "result": 0.469, "unit": "µM"},
      {"measurement": "viability, T/C", "setting": "second compound 0.0316 µM, first compound 0.00949 µM", "result": 77.2, "unit": "%"},
      {"measurement": "viability, T/C", "setting": "second compound 0.0316 µM, first compound 0.03 µM", "result": 78.5, "unit": "%"},
      {"measurement": "viability, T/C", "setting": "second compound 0.0316 µM, first compound 0.0949 µM", "result": 84.2, "unit": "%"},
      {"measurement": "viability, T/C", "setting": "second compound 0.0316 µM, first compound 0.3 µM", "result": 81.3, "unit": "%"},
      {"measurement": "viability, T/C", "setting": "second compound 0.0316 µM, first compound 0.949 µM", "result": 70.5, "unit": "%"},
      {"measurement": "viability, T/C", "setting": "second compound 0.0316 µM, first compound 3 µM", "result": 41.5, "unit": "%"},
      {"measurement": "viability, T/C", "setting": "second compound 0.1 µM, first compound 0.00949 µM", "result": 81.9, "unit": "%"},
      {"measurement": "viability, T/C", "setting": "second compound 0.1 µM, first compound 0.03 µM", "result": 84.4, "unit": "%"},
      {"measurement": "viability, T/C", "setting": "second compound 0.1 µM, first compound 0.0949 µM", "result": 77.4, "unit": "%"},
      {"measurement": "viability, T/C", "setting": "second compound 0.1 µM, first compound 0.3 µM", "result": 72.7, "unit": "%"},
      {"measurement": "viability, T/C", "setting": "second compound 0.1 µM, first compound 0.949 µM", "result": 66.4, "unit": "%"},
      {"measurement": "viability, T/C", "setting": "second compound 0.1 µM, first compound 3 µM", "result": 37.8, "unit": "%"},
      {"measurement": "viability, T/C", "setting": "second compound 0.316 µM, first compound 0.00949 µM", "result": 85.4, "unit": "%"},
      {"measurement": "viability, T/C", "setting": "second compound 0.316 µM, first compound 0.03 µM", "result": 86.6, "unit": "%"},
      {"measurement": "viability, T/C", "setting": "second compound 0.316 µM, first compound 0.0949 µM", "result": 78.5, "unit": "%"},
      {"measurement": "viability, T/C", "setting": "second compound 0.316 µM, first compound 0.3 µM", "result": 74.6, "unit": "%"},
      {"measurement": "viability, T/C", "setting": "second compound 0.316 µM, first compound 0.949 µM", "result": 61, "unit": "%"},
      {"measurement": "viability, T/C", "setting": "second compound 0.316 µM, first compound 3 µM", "result": 42.6, "unit": "%"},
      {"measurement": "viability, T/C", "setting": "second compound 1 µM, first compound 0.00949 µM", "result": 92, "unit": "%"},
      {"measurement": "viability, T/C", "setting": "second compound 1 µM, first compound 0.03 µM", "result": 82, "unit": "%"},
      {"measurement": "viability, T/C", "setting": "second compound 1 µM, first compound 0.0949 µM", "result": 79.4, "unit": "%"},
      {"measurement": "viability, T/C", "setting": "second compound 1 µM, first compound 0.3 µM", "result": 75.2, "unit": "%"},
      {"measurement": "viability, T/C", "setting": "second compound 1 µM, first compound 0.949 µM", "result": 65.2, "unit": "%"},
      {"measurement": "viability, T/C", "setting": "second compound 1 µM, first compound 3 µM", "result": 36.9, "unit": "%"},
      {"measurement": "viability, T/C", "setting": "second compound 3.16 µM, first compound 0.00949 µM", "result": 77.1, "unit": "%"},
      {"measurement": "viability, T/C", "setting": "second compound 3.16 µM, first compound 0.03 µM", "result": 71.5, "unit": "%"},
      {"measurement": "viability, T/C", "setting": "second compound 3.16 µM, first compound 0.0949 µM", "result": 74.1, "unit": "%"},
      {"measurement": "viability, T/C", "setting": "second compound 3.16 µM, first compound 0.3 µM", "result": 70.4, "unit": "%"},
      {"measurement": "viability, T/C", "setting": "second compound 3.16 µM, first compound 0.949 µM", "result": 55, "unit": "%"},
      {"measurement": "viability, T/C", "setting": "second compound 3.16 µM, first compound 3 µM", "result": 37.4, "unit": "%"},
      {"measurement": "viability, T/C", "setting": "second compound 10 µM, first compound 0.00949 µM", "result": 85.1, "unit": "%"},
      {"measurement": "viability, T/C", "setting": "second compound 10 µM, first compound 0.03 µM", "result": 74.2, "unit": "%"},
      {"measurement": "viability, T/C", "setting": "second compound 10 µM, first compound 0.0949 µM", "result": 74.4, "unit": "%"},
      {"measurement": "viability, T/C", "setting": "second compound 10 µM, first compound 0.3 µM", "result": 51.9, "unit": "%"},
      {"measurement": "viability, T/C", "setting": "second compound 10 µM, first compound 0.949 µM", "result": 44.4, "unit": "%"},
      {"measurement": "viability, T/C", "setting": "second compound 10 µM, first compound 3 µM", "result": 36.8, "unit": "%"}
    ]},
    {"smiles": "Cc1cccc(N(C)C(=O)C2C(O)CCN2c2nc(C)cc(C(F)(F)F)c2C#N)c1", "note": "(stereo not given)", "values": [
      {"measurement": "viability, T/C", "setting": "compound 0.0316 µM", "result": "98.9% [middle of 12 runs]"},
      {"measurement": "viability, T/C", "setting": "compound 0.1 µM", "result": "95.7% [middle of 12 runs]"},
      {"measurement": "viability, T/C", "setting": "compound 0.316 µM", "result": "97.4% [middle of 12 runs]"},
      {"measurement": "viability, T/C", "setting": "compound 1 µM", "result": "98.2% [middle of 12 runs]"},
      {"measurement": "viability, T/C", "setting": "compound 3.16 µM", "result": "97% [middle of 12 runs]"},
      {"measurement": "viability, T/C", "setting": "compound 10 µM", "result": "101% [middle of 12 runs]"},
      {"measurement": "IC50", "setting": "compound alone, run of 11/27/2023", "result": "> 10", "unit": "µM"},
      {"measurement": "IC50", "setting": "compound alone, run of 12/05/2023", "result": "> 10", "unit": "µM"}
    ]}
  ]
}
